Measurements from ChEMBL document CHEMBL3885861, “Open TG-GATES”.

Species: Rattus norvegicus
Test: Open TG-GATES - Regimen: Single
Format: toxicity, organism-based, Sprague-Dawley
Parameters: regimen Single, gender Male, age 6 weeks
Details: in vivo, po, 0 mg/kg, route gavage, dose level Control; for APTT / Bas / Eos / Fbg / Hb / Ht / Lym / MCH / MCHC / MCV / Mono / Neu / PT / Plat / RBC / Ret / WBC: tissue Blood; for LIVER: tissue Liver; for A/G / ALP / ALT / AST / BUN / CRE / Ca / Cl / DBIL / GLC / IP / K / LDH / Na / PL / RALB / TBIL / TC / TG / TP / gamma-GTP: tissue Plasma

## C=C(C)[C@H]1Cc2c(ccc3c2O[C@@H]2COc4cc(OC)c(OC)cc4[C@@H]2C3=O)O1 [ROTENONE]
3 h
  TERMINAL_BW: 198.4 g
  APTT: 15 s
  Bas: 0%
  Eos: 1%
  Fbg: 207.8 mg/dL
  Hb: 12.6 g/dL
  Ht: 38.3%
  Lym: 76.8%
  MCH: 21 pg
  MCHC: 33%
  MCV: 63.7 fL
  Mono: 5%
  Neu: 17.6%
  PT: 12.1 s
  Plat: 131.6 x10_4/uL
  RBC: 601.6 x10_4/ul
  Ret: 9.8%
  WBC: 98.8 x10_2/uL
  LIVER: 9.4 g
  A/G: 2.3
  ALP: 1432.2 IU/L
  ALT: 35.8 IU/L
  AST: 70.6 IU/L
  BUN: 12.8 mg/dL
  CRE: 0.3 mg/dL
  Ca: 11 mg/dL
  Cl: 104.6 meq/L
  DBIL: 0.01 mg/dL
  GLC: 188.2 mg/dL
  IP: 8.3 mg/dL
  K: 4.4 meq/L
  LDH: 80.6 IU/L
  Na: 140.4 meq/L
  PL: 139.6 mg/dL
  RALB: 3.7 g/dL
  TBIL: 0.04 mg/dL
  TC: 82.8 mg/dL
  TG: 61.2 mg/dL
  TP: 5.3 g/dL
  gamma-GTP: 1 IU/L
6 h
  TERMINAL_BW: 197 g
  APTT: 15.9 s
  Bas: 0%
  Eos: 1%
  Fbg: 218 mg/dL
  Hb: 13.2 g/dL
  Ht: 40.3%
  Lym: 72.2%
  MCH: 21.2 pg
  MCHC: 32.8%
  MCV: 64.5 fL
  Mono: 9%
  Neu: 17.6%
  PT: 12.1 s
  Plat: 122.2 x10_4/uL
  RBC: 625.8 x10_4/ul
  Ret: 8.1%
  WBC: 92.8 x10_2/uL
  LIVER: 8.7 g
  A/G: 2.3
  ALP: 1181 IU/L
  ALT: 35.4 IU/L
  AST: 67 IU/L
  BUN: 9.6 mg/dL
  CRE: 0.4 mg/dL
  Ca: 10.9 mg/dL
  Cl: 103.4 meq/L
  DBIL: 0.01 mg/dL
  GLC: 181.8 mg/dL
  IP: 9 mg/dL
  K: 4.4 meq/L
  LDH: 87 IU/L
  Na: 139.2 meq/L
  PL: 139.8 mg/dL
  RALB: 3.8 g/dL
  TBIL: 0.048 mg/dL
  TC: 81.8 mg/dL
  TG: 82.8 mg/dL
  TP: 5.4 g/dL
  gamma-GTP: 0.4 IU/L
9 h
  TERMINAL_BW: 190.2 g
  APTT: 16 s
  Bas: 0%
  Eos: 1%
  Fbg: 209 mg/dL
  Hb: 13 g/dL
  Ht: 39.4%
  Lym: 74.4%
  MCH: 21.4 pg
  MCHC: 32.9%
  MCV: 64.8 fL
  Mono: 8.4%
  Neu: 16.6%
  PT: 12.2 s
  Plat: 123.2 x10_4/uL
  RBC: 609 x10_4/ul
  Ret: 9.2%
  WBC: 95 x10_2/uL
  LIVER: 8 g
  A/G: 2.5
  ALP: 1388.2 IU/L
  ALT: 33.6 IU/L
  AST: 64.4 IU/L
  BUN: 9.8 mg/dL
  CRE: 0.3 mg/dL
  Ca: 11 mg/dL
  Cl: 104.2 meq/L
  DBIL: 0.01 mg/dL
  GLC: 182.2 mg/dL
  IP: 10.2 mg/dL
  K: 4.1 meq/L
  LDH: 74.6 IU/L
  Na: 140 meq/L
  PL: 134.2 mg/dL
  RALB: 3.8 g/dL
  TBIL: 0.05 mg/dL
  TC: 81.4 mg/dL
  TG: 42.2 mg/dL
  TP: 5.3 g/dL
  gamma-GTP: 1 IU/L
24 h
  TERMINAL_BW: 212.6 g
  APTT: 15.6 s
  Bas: 0%
  Eos: 1%
  Fbg: 220.6 mg/dL
  Hb: 12.6 g/dL
  Ht: 38.4%
  Lym: 69%
  MCH: 21.6 pg
  MCHC: 32.8%
  MCV: 65.9 fL
  Mono: 9.8%
  Neu: 20%
  PT: 12 s
  Plat: 131.2 x10_4/uL
  RBC: 582.6 x10_4/ul
  Ret: 8.3%
  WBC: 108.8 x10_2/uL
  LIVER: 10.1 g
  A/G: 2.5
  ALP: 1476.8 IU/L
  ALT: 48 IU/L
  AST: 75.8 IU/L
  BUN: 18 mg/dL
  CRE: 0.4 mg/dL
  Ca: 11.5 mg/dL
  Cl: 103.8 meq/L
  DBIL: 0.014 mg/dL
  GLC: 181.6 mg/dL
  IP: 7.2 mg/dL
  K: 4.8 meq/L
  LDH: 93.8 IU/L
  Na: 139 meq/L
  PL: 148.4 mg/dL
  RALB: 3.9 g/dL
  TBIL: 0.042 mg/dL
  TC: 81.2 mg/dL
  TG: 123.6 mg/dL
  TP: 5.5 g/dL
  gamma-GTP: 0.6 IU/L
